According to a flash point compilation (Sun et al. 2020):
Where a name gives a salt, the structure may show the parent alone.

Assays:
[1] = not given; remark: listed apart in the source
[2] = not given; remark: listed apart in the source
[3] = not given; remark: listed apart in the source
[4] = not given; remark: listed apart in the source

| SMILES | flash point [1] [°C] | other results |
| --- | --- | --- |
| C[Si]1(C)CCCCO1 [1,1 -Dimethyl-1-sila-2-oxacyclohexane] | – | flash point: 14.00 °C |
| C[SiH](C)O[SiH](C)C [1,1,3,3-Tetramethyldisiloxane] | – | flash point: -22.00 °C |
| CC(Cl)(Cl)[N+](=O)[O-] [1,1-Dichloro-1-nitroethane] | 76.00 | – |
| Clc1cc(Cl)c(Cl)cc1Cl [1,2,4,5-Tetrachlorobenzene] | 155.00 | – |
| CC(Cl)CCl (stereo unspecified) [1,2-Dichloropropane] | 16.00 | – |
| CC(O)CO (stereo unspecified) [1,2-Propanediol] | 99.00 | – |
| CC(Cl)=CCCl [1,3-Dichloro-2-butene] | 27.00 | – |
| C=CCC=CC [1,4-Hexadiene] | -21.00 | – |
| C=CC=CO[Si](C)(C)C [1-(Trimethylsiloxy)-1,3-butadiene] | – | flash point: 25.00 °C |
| C=CCC [1-Butene] | -80.00 | – |
| CCC(Cl)[N+](=O)[O-] (stereo unspecified) [1-Chloro-1-nitropropane] | 62.00 | – |
| O=[N+]([O-])c1ccc(Cl)c([N+](=O)[O-])c1 [1-Chloro-2,4-dinitrobenzene] | 194.00 | – |
| Nc1cccc2ccccc12 [1-Naphthylamine] | 157.00 | – |
| CCC[N+](=O)[O-] [1-Nitropropane] | 49.00 | – |
| Oc1ccc(Cl)cc1Cl [2,4-Dichlorophenol] | 114.00 | – |
| CC=CC=CC=O [2,4-Hexadienal] | 68.00 | – |
| CCCCC(CC)CO (stereo unspecified) [2-Ethyl hexanol] | 84.00 | – |
| OCCS [2-Mercaptoethanol] | 74.00 | – |
| Cc1ccco1 [2-Methyl furan] | -30.00 | – |
| Cc1ccccn1 [2-Picoline] | 39.00 | – |
| CC(C)(C)S [2-methyl-2-propanethiol] | – | flash point [2]: -26 °C; flash point [3]: -24 °C |
| C1=COCCC1 [3,4-Dihydro-2H-pyran] | -18.00 | – |
| CC(CCO)CC(C)(C)C (stereo unspecified) [3,5,5-trimethyl-1-hexanol] | – | flash point [2]: 79 °C; flash point [3]: 80 °C |
| Cc1ccncc1 [4-Picoline] | 57.00 | – |
| CC(=O)Nc1ccccc1 [Acetanilide] | 174.00 | – |

| SMILES | flash point [1] [°C] | other results |
| --- | --- | --- |
| CC(C)(O)C#N [Acetone cyanohydrin] | 74.00 | – |
| C=CC(=O)O [Acrylic acid] | 52.00 | – |
| N#Cc1ccccc1 [Benzonitrile] | 85.00 | – |
| O=C(Cl)c1ccccc1 [Benzoyl chloride] | 72.00 | – |
| NCc1ccccc1 [Benzylamine] | 63.00 | – |
| c1ccc(-c2ccccc2)cc1 [Biphenyl] | 113.00 | – |
| Brc1ccccc1 [Bromobenzene] | 51.00 | – |
| CCCCS [Butyl mercaptan] | 2.00 | – |
| C=C(C)C(=O)OCCCC [Butyl methacrylate] | 52.00 | – |
| CCCCCC(=O)O [Caproic acid] | 102.00 | – |
| S=C=S [Carbon disulphide] | -30.00 | – |
| O=CCCl [Chloroacetaldehyde] | 88.00 | – |
| Clc1cccc2ccccc12 [Chloronaphthalene] | 132.00 | – |
| C/C=C/C=O [Crotonaldehyde] | 13.00 | – |
| CC(C)c1ccccc1 [Cumene] | 44.00 | – |
| O=C1CCCCC1 [Cyclohexanone] | 44.00 | – |
| O=C1CCCC1 [Cyclopentanone] | 26.00 | – |
| CC(=O)CC(C)(C)O [Diacetone alcohol] | 64.00 | – |
| CCCCOC(=O)C(=O)OCCCC [Dibutyl oxalate] | 104.00 | – |
| CCCCOC(=O)c1ccccc1C(=O)OCCCC [Dibutyl phthalate] | 157.00 | – |
| CCCCOC(=O)C(O)C(O)C(=O)OCCCC (stereo unspecified) [Dibutyl tartrate] | 91.00 | – |
| O=C(Cl)C(Cl)Cl [Dichloroacetyl chloride] | 66.00 | – |
| C1CCC(NC2CCCCC2)CC1 [Dicyclohexylamine] | 99.00 | – |
| NCCNCCN [Diethylenetriamine] | 102.00 | – |
| CC(C)CC(O)CC(C)C [Diisobutyl carbinol] | 74.00 | – |

| SMILES | flash point [1] [°C] | other results |
| --- | --- | --- |
| COC(C)(C)OC [Dimethoxypropane] | -7.00 | – |
| COC(=O)OC [Dimethyl carbonate] | 19.00 | – |
| COC(=O)c1ccccc1C(=O)OC [Dimethyl phthalate] | 146.00 | – |
| COC(C)COC(C)CO (stereo unspecified) [Dipropylene glycol methyl ether] | 85.00 | – |
| ClCC1CO1 (stereo unspecified) [Epichlorohydrin] | 41.00 | – |
| CCCC(=O)Nc1ccccc1 [Ethyl acetanilide] | 52.00 | – |
| CCOC(=O)CC(C)=O [Ethyl acetoacetate] | 84.00 | – |
| CCCCCC(=O)CC [Ethyl amyl ketone] | 57.00 | – |
| CCOC(=O)CCl [Ethyl chloroacetate] | 66.00 | – |
| C/C=C/C(=O)OCC [Ethyl crotonate] | 2.00 | – |
| CCOC(=O)CC [Ethyl propionate] | 12.00 | – |
| OCCCl [Ethylene chlorohydrin] | 60.00 | – |
| NC=O [Formamide] | 155.00 | – |
| O=Cc1ccco1 [Furfural] | 60.00 | – |
| OCC(O)CO [Glycerol] | 160.00 | – |
| CC(=O)CC(C)C [Isobutyl methyl ketone] | 17.00 | – |
| C=CC(=C)C [Isoprene] | -54.00 | – |
| C=CC(=O)OC [Methyl acrylate] | -3.00 | – |
| CCC(C)=O [Methyl ethyl ketone] | -7.00 | – |
| CC(=O)CC(C)C [Methyl isobutyl ketone] | 23.00 | – |
| COC(=O)C(C)C [Methyl isobutyrate] | 13.00 | – |
| C=C(C)C(=O)OC [Methyl methacrylate] | 10.00 | – |
| CCCC(C)=O [Methyl-n-Propyl ketone] | 7.00 | – |
| CN(C)c1ccccc1 [N,N-Dimethylaniline ] | 63.00 | – |
| c1ccc2ccccc2c1 [Naphthalene] | 79.00 | – |

| SMILES | flash point [1] [°C] | other results |
| --- | --- | --- |
| Oc1ccccc1 [Phenol] | 79.00 | – |
| NCC(O)c1ccccc1 (stereo unspecified) [Phenylethanolamine] | 152.00 | – |
| NNc1ccccc1 [Phenylhydrazine] | 89.00 | – |
| CC(C)=CC(=O)C=C(C)C [Phorone] | 85.00 | – |
| C=CC=CC [Piperylene] | -43.00 | – |
| CCCc1ccccc1 [Propyl benzene] | 30.00 | – |
| c1ccncc1 [Pyridine] | 20.00 | – |
| Oc1cccc(O)c1 [Resorcinol] | 127.00 | – |
| O=C(O)c1ccccc1O [Salicylic acid] | 157.00 | – |
| NCCNCCNCCNCCN [Tetraethylenepentamine] | 163.00 | – |
| c1ccc2c(c1)CCCC2 [Tetrahydronaphthalene] | 71.00 | – |
| c1ccsc1 [Thiophene] | -1.00 | – |
| OCCN(CCO)CCO [Triethanolamine] | 179.00 | – |
| CN(C)C [Trimethyl amine] | -7.00 | – |
| O=P(Oc1ccccc1)(Oc1ccccc1)Oc1ccccc1 [Triphenyl phosphate] | 220.00 | – |
| c1ccc(P(c2ccccc2)c2ccccc2)cc1 [Triphenyl phosphine] | 180.00 | – |
| C=CCl [Vinyl chloride] | -78.00 | – |
| Cc1cccc(N)c1C [Xylidine] | 97.00 | – |
| ClC1CCCCC1 [chlorocyclohexane] | – | flash point [2]: 32 °C; flash point [3]: 28 °C |
| C1CCCCCCCCC1 [cyclodecane] | – | flash point [2]: 65 °C; flash point [3]: 59 °C |
| NCCNCCN [diethylenetriamine] | – | flash point [2]: 97 °C; flash point [3]: 90 °C |
| CC(C)CCO[N+](=O)[O-] [iso-Amyl nitrate] | 52.00 | – |
| CC(=O)OCC(C)C [iso-Butyl acetate] | 18.00 | – |
| Cc1cccc([N+](=O)[O-])c1 [m-Nitrotoluene] | 106.00 | – |
| c1ccc(-c2cccc(-c3ccccc3)c2)cc1 [m-Terphenyl] | 135.00 | – |

| SMILES | flash point [1] [°C] | other results |
| --- | --- | --- |
| Cc1cccc(N)c1 [m-Toluidine] | 86.00 | – |
| Cc1cccc(C)c1 [m-Xylene] | 29.00 | – |
| CC1CCCC1 [methylcyclopentane] | – | flash point [2]: -29 °C; flash point [4]: -24.00 °C; flash point [3]: -23 °C |
| C=C1CCCC1 [methylenecyclopentane] | – | flash point [2]: -19 °C; flash point [3]: -18 °C |
| CCCCCCCN [n-Heptylamine] | 54.00 | – |
| CCCOC(C)=O [n-Propyl acetate] | 14.00 | – |
| COc1ccccc1C=O [o-Anisaldehyde] | 118.00 | – |
| Cc1ccccc1Br [o-Bromotoluene] | 79.00 | – |
| Oc1ccccc1Cl [o-Chlorophenol] | 64.00 | – |
| Nc1ccccc1[N+](=O)[O-] [o-Nitroaniline] | 168.00 | – |
| Cc1ccccc1[N+](=O)[O-] [o-Nitrotoluene] | 106.00 | – |
| c1ccc(-c2ccccc2-c2ccccc2)cc1 [o-Terphenyl] | 163.00 | – |
| Cc1ccccc1N [o-Toluidine] | 85.00 | – |
| Cc1ccc(O)cc1 [p-Cresol] | 94.00 | – |
| Nc1ccc([N+](=O)[O-])cc1 [p-Nitroaniline] | 199.00 | – |
| Cc1ccc(N)cc1 [p-Toluidine] | 87.00 | – |
| Cc1ccc(C)cc1 [p-Xylene] | 27.00 | – |
| CCCC(C)OC(C)=O (stereo unspecified) [sec-Amyl acetate] | 32.00 | – |
| CCCCC(C)OC(C)=O (stereo unspecified) [sec-Hexyl acetate] | 45.00 | – |
| CC(C)(C)O [tert-Butyl alcohol] | 10.00 | – |
| CCCCCCCCCCCCC [tridecane] | – | flash point [2]: 102 °C; flash point [4]: 79.00 °C; flash point [3]: 94 °C |
